# In PubChem BioAssay AID1259407 (Chemical Carcinogenesis Research Information System (CCRIS), 2018):
# The source made the active and inactive calls. How the calls were made is not given here.
# System: CCRIS mutagenicity, Ames/micronucleus/aberration tests
# Assay: CCRIS mutagenicity studies
# [1] = Test System: AMES SALMONELLA TYPHIMURIUM, Strain/Indicator: TA100, Metabolic Activation: NONE, Method: PREINCUBATION
# [2] = Test System: AMES SALMONELLA TYPHIMURIUM, Strain/Indicator: TA100, Metabolic Activation: RAT, LIVER, S-9, AROCLOR 1254, Method: PREINCUBATION
# [3] = Test System: AMES SALMONELLA TYPHIMURIUM, Strain/Indicator: TA100, Metabolic Activation: NONE, Method: STANDARD PLATE
# [4] = Test System: AMES SALMONELLA TYPHIMURIUM, Strain/Indicator: TA97, Metabolic Activation: NONE, Method: STANDARD PLATE
# [5] = Test System: AMES SALMONELLA TYPHIMURIUM, Strain/Indicator: TA98, Metabolic Activation: NONE, Method: STANDARD PLATE
# [6] = Test System: AMES SALMONELLA TYPHIMURIUM, Strain/Indicator: TA98, Metabolic Activation: NONE, Method: PREINCUBATION
compound,measurement,setting,value
C=C(C)C=O,mutagenic call,"Test System: AMES SALMONELLA TYPHIMURIUM, Strain/Indicator: TA100, Metabolic Activation: NONE, Method: MODIFIED LIQUID SUSPENSION",active; positive
same,mutagenic call,[1],active; positive
same,mutagenic call,"Test System: AMES SALMONELLA TYPHIMURIUM, Strain/Indicator: TA100, Metabolic Activation: RAT LIVER S-9, AROCLOR 1254, Method: PREINCUBATION",active; positive
same,mutagenic call,"Test System: AMES SALMONELLA TYPHIMURIUM, Strain/Indicator: TA100, Metabolic Activation: RAT, LIVER, S-9, AROCLOR 1254, Method: MODIFIED LIQUID SUSPENSION",active; positive
same,mutagenic call,[2],active; positive
same,mutagenic call,"Test System: AMES SALMONELLA TYPHIMURIUM, Strain/Indicator: TA104, Metabolic Activation: NONE, Method: PREINCUBATION",active; positive
same,mutagenic call,"Test System: CHINESE HAMSTER V-79, Strain/Indicator: V-79 (HPRT)/6-THIOGUANINE, Metabolic Activation: NONE",active; positive
same,mutagenic call,"Test System: CHINESE HAMSTER V-79, Strain/Indicator: V-79 (HPRT)/6-THIOGUANINE, Metabolic Activation: RAT LIVER S-9, AROCLOR 1254",inactive; negative
CC(=O)N(O)c1ccc(Oc2ccccc2)cc1,mutagenic call,"Test System: AMES SALMONELLA TYPHIMURIUM, Strain/Indicator: TA100, Metabolic Activation: GUINEA PIG, LIVER, S-9, KANECLOR 500, Method: STANDARD PLATE",active; positive
same,mutagenic call,[3],inactive; negative
same,mutagenic call,"Test System: AMES SALMONELLA TYPHIMURIUM, Strain/Indicator: TA100, Metabolic Activation: RAT, LIVER, S-9, KANECLOR 500, Method: STANDARD PLATE",active; positive
COc1cccc2c1C(=O)c1c(O)c3c(c(O)c1C2=O)C[C@@](O)(C(C)=NNC(=O)c1ccccc1)C[C@@H]3O[C@H]1C[C@H](N)[C@H](O)[C@H](C)O1,mutagenic call,[4],inactive; negative
same,mutagenic call,[5],active; positive
same,mutagenic call,[3],inactive; negative
same,mutagenic call,"Test System: AMES SALMONELLA TYPHIMURIUM, Strain/Indicator: TA104, Metabolic Activation: NONE, Method: STANDARD PLATE",inactive; negative
same,mutagenic call,"Test System: AMES SALMONELLA TYPHIMURIUM, Strain/Indicator: TA2637, Metabolic Activation: NONE, Method: STANDARD PLATE",active; positive
C=CCOC(=O)CC(C)C,mutagenic call,"End Point: IN VITRO CHROMOSOMAL ABERRATIONS, Test System: CHO CELLS, Metabolic Activation: NONE",inactive; negative
same,mutagenic call,"Test System: AMES SALMONELLA TYPHIMURIUM, Strain/Indicator: TA98, Metabolic Activation: HAMSTER, LIVER, S-9, AROCLOR 1254, Method: PREINCUBATION",inactive; negative
same,mutagenic call,[6],inactive; negative
same,mutagenic call,"Test System: AMES SALMONELLA TYPHIMURIUM, Strain/Indicator: TA98, Metabolic Activation: RAT, LIVER, S-9, AROCLOR 1254, Method: PREINCUBATION",inactive; negative
same,mutagenic call,"Test System: AMES SALMONELLA TYPHIMURIUM, Strain/Indicator: TA100, Metabolic Activation: HAMSTER, LIVER, S-9, AROCLOR 1254, Method: PREINCUBATION",inactive; negative
same,mutagenic call,[1],inactive; negative
same,mutagenic call,[2],inactive; negative
same,mutagenic call,"Test System: AMES SALMONELLA TYPHIMURIUM, Strain/Indicator: TA1535, Metabolic Activation: HAMSTER, LIVER, S-9, AROCLOR 1254, Method: PREINCUBATION",inactive; negative
same,mutagenic call,"Test System: AMES SALMONELLA TYPHIMURIUM, Strain/Indicator: TA1535, Metabolic Activation: NONE, Method: PREINCUBATION",inactive; negative
same,mutagenic call,"Test System: AMES SALMONELLA TYPHIMURIUM, Strain/Indicator: TA1535, Metabolic Activation: RAT, LIVER, S-9, AROCLOR 1254, Method: PREINCUBATION",inactive; negative
same,mutagenic call,"Test System: AMES SALMONELLA TYPHIMURIUM, Strain/Indicator: TA1537, Metabolic Activation: HAMSTER, LIVER, S-9, AROCLOR 1254, Method: PREINCUBATION",inactive; negative
same,mutagenic call,"Test System: AMES SALMONELLA TYPHIMURIUM, Strain/Indicator: TA1537, Metabolic Activation: NONE, Method: PREINCUBATION",inactive; negative
same,mutagenic call,"Test System: AMES SALMONELLA TYPHIMURIUM, Strain/Indicator: TA1537, Metabolic Activation: RAT, LIVER, S-9, AROCLOR 1254, Method: PREINCUBATION",inactive; negative
COc1cc(-c2cc(OC)cc(C(C)(C)C)c2O)c(O)c(C(C)(C)C)c1,mutagenic call,"Test System: AMES SALMONELLA TYPHIMURIUM, Strain/Indicator: TA97, Metabolic Activation: NONE, Method: PREINCUBATION",inactive; negative
same,mutagenic call,"Test System: AMES SALMONELLA TYPHIMURIUM, Strain/Indicator: TA97, Metabolic Activation: RAT, LIVER, S-9, PCB, Method: PREINCUBATION",inactive; negative
same,mutagenic call,[6],inactive; negative
same,mutagenic call,"Test System: AMES SALMONELLA TYPHIMURIUM, Strain/Indicator: TA98, Metabolic Activation: RAT, LIVER, S-9, PCB, Method: PREINCUBATION",inactive; negative
same,mutagenic call,[1],inactive; negative
same,mutagenic call,"Test System: AMES SALMONELLA TYPHIMURIUM, Strain/Indicator: TA100, Metabolic Activation: RAT, LIVER, S-9, PCB, Method: PREINCUBATION",inactive; negative
same,mutagenic call,"Test System: AMES SALMONELLA TYPHIMURIUM, Strain/Indicator: TA102, Metabolic Activation: NONE, Method: PREINCUBATION",inactive; negative
same,mutagenic call,"Test System: AMES SALMONELLA TYPHIMURIUM, Strain/Indicator: TA102, Metabolic Activation: RAT, LIVER, S-9, PCB, Method: PREINCUBATION",inactive; negative
O=C1c2ccccc2C(=O)N1SC1CCCCC1,mutagenic call,[4],inactive; negative
same,mutagenic call,"Test System: AMES SALMONELLA TYPHIMURIUM, Strain/Indicator: TA97, Metabolic Activation: RAT LIVER S-9, DELOR 103 (4% OR 10%), Method: STANDARD PLATE",inactive; negative
same,mutagenic call,[5],inactive; negative
same,mutagenic call,"Test System: AMES SALMONELLA TYPHIMURIUM, Strain/Indicator: TA98, Metabolic Activation: RAT LIVER S-9, DELOR 103 (4% OR 10%), Method: STANDARD PLATE",inactive; negative
same,mutagenic call,[3],inactive; negative
same,mutagenic call,"Test System: AMES SALMONELLA TYPHIMURIUM, Strain/Indicator: TA100, Metabolic Activation: RAT LIVER S-9, DELOR 103 (4% OR 10%), Method: STANDARD PLATE",inactive; negative
same,mutagenic call,"Test System: AMES SALMONELLA TYPHIMURIUM, Strain/Indicator: TA102, Metabolic Activation: NONE, Method: STANDARD PLATE",inactive; negative
same,mutagenic call,"Test System: AMES SALMONELLA TYPHIMURIUM, Strain/Indicator: TA102, Metabolic Activation: RAT LIVER S-9, DELOR 103 (4% OR 10%), Method: STANDARD PLATE",inactive; negative
